In US20090162413A1 (priority 1998, published 2009):

Assays:
[1] = release of zotarolimus from PC polymer coated 316L stainless steel coupons (Example 4); assay type: physicochemical
Description: The purpose of this example is to determine the rate of release of the zotarolimus drug from 316L Electropolished Stainless Steel Coupons coated with a biocompatible polymer containing phosphorylcholine side groups.
Rubber septa from lids from HPLC vials were removed from the vials and placed into glass vials so that the “Teflon” side faced up. These septa served as supports for the test samples. The test samples were 316L stainless steel coupons that had been previously coated with a biocompatible polymer containing phosphorylcholine side groups (PC polymer). Coronary stents are commonly made of 316L stainless steel and can be coated with the PC polymer to provide a depot site for loading drugs. The coated coupons, which serve to simulate stents, were placed onto the septa. By using a glass Hamilton Syringe, a solution of zotarolimus and ethanol (10 μl) was applied to the surface of each coupon. The solution contained zotarolimus (30.6 mg) dissolved in 100% ethanol (3.0 ml). The syringe was cleaned with ethanol between each application. The cap to the glass vial was placed on the vial loosely, thereby assuring proper ventilation. The coupon was allowed to dry for a minimum of 1.5 hours. Twelve (12) coupons were loaded in this way—six being used to determine the average amount of drug loaded onto the device and six being used to measure the time needed to release the drug from the devices.
To determine the total amount of zotarolimus loaded onto a coupon, a coupon was removed from the vial and placed into 50/50 acetonitrile/0.01M phosphate buffer (pH 6.0, 5.0 ml). The coupon was placed onto a 5210 Branson sonicator for one hour. The coupon was then removed from the solution, and the solution was assayed by HPLC.
The time release studies were performed by immersing and removing the individual coupons from fresh aliquots (10.0 ml) of 0.01 M phosphate buffer at a pH of 6.0 at each of the following time intervals −5, 15, 30 and 60 minutes. For the remaining time points of 120, 180, 240, 300, 360 minutes, volumes of 5.0 ml of buffer were used. To facilitate mixing during the drug release phase, the samples were placed onto an Eberbach shaker set at low speed. All solution aliquots were assayed by HPLC after the testing of the last sample was completed.
The HPLC analysis was performed with a Hewlett Packard series 1100 instrument having the following settings: […]

[2] = Phase 1 multiple escalating intravenous dose safety and pharmacokinetics, QD for 14 days (Example 7); assay type: in vivo, human; settings: for median Cmax: predicted 14-day profile; for AUCτ/Dose / Cmax / Cmax/Dose: secondary predicted parameter; for Gamma: terminal elimination rate constant
Description: The present study was designed to evaluate the pharmacokinetics of zotarolimus following multiple dosing and to assess its safety while maximizing systemic exposure of healthy subjects. […] The study investigated pharmacokinetics and safety of zotarolimus in a Phase 1, multiple dose-escalation study following multiple intravenous infusions of 200, 400 and 800 μg doses, every day for fourteen consecutive days in healthy subjects.
Phase 1, multiple-escalating dose, double-blind, placebo-controlled, randomized study. Seventy-two subjects equally divided in 3 once-daily (QD) regimens (200, 400 or 800 μg QD with 16 active and 8 placebo per regimen) were administered a 60-minute QD IV infusion of zotarolimus for 14 consecutive days. Blood samples were collected over 24 hours following the first dose, before dosing on days 10, 11, 12, 13, and for 168 hours following Day 14 dose. Urine samples were collected over 24 hours on days 1, 14, 16, 18 and 20. Blood and urine zotarolimus concentrations were determined using a validated LC/MS/MS method. Pharmacokinetic parameters were determined by compartmental analysis. All Day-AUC0-∞ (area under blood concentration-time curve from time 0 to infinity including all 14 doses) was calculated. Dose and time-linearity and achievement of steady-state were evaluated. Fraction of drug eliminated in urine was determined.
Within each group, subjects were equally divided at the two study sites with each site enrolling 12 subjects (zotarolimus, eight subjects; placebo four subjects). The dosing scheme within each dose group is presented below:
Subjects received, under fasting conditions, a single 60-minute daily (QD) intravenous infusion of 200, 400, or 800 μg of zotarolimus or a matching intravenous infusion of placebo for Groups I, II and III, respectively on Study Days 1 through 14. The drug was administered via a syringe pump connected to a y-site device, which also infused 125-150 mL of 5% aqueous dextrose solution (D5W) over 60 minutes. The groups were dosed sequentially with at least 7 days separating the last dose of the previous group and the first dose of the next group during which time safety data from the previous group was analyzed. Dose escalation was dependent on the safety analysis of the lower dose group.
Five (5)-mL blood samples were collected in potassium EDTA containing tubes to evaluate zotarolimus concentrations prior to dosing (0 hour), and at 0.25, 0.5, 1.0, 1 hour 5 min, 1.25, 1.5, 2, 3, 4, 8, 12, 18 and 24 hours after starting infusion on Study Days 1 and 14. Additional samples were collected at 36, 48, 72, 96, 120, 144 and 168 hours after starting infusion on Study Day 14 and before dosing on Days 10, 11, 12 and 13. Urine was collected in containers without preservatives over the following intervals: 0 to 6, 6 to 12, 12 to 18 and 18 to 24 hours after starting the infusion on Study Days 1, 14, 16, 18 and 20.
Blood and urine concentrations of zotarolimus were determined using a validated liquid/liquid extraction HPLC tandem mass spectrometric method (LC-MS/MS). The lower limit of quantification of zotarolimus was 0.20 ng/mL using 0.3 mL blood sample and 0.50 ng/mL using 0.3 mL urine sample.
Safety was evaluated based on adverse event, physical examination, vital signs, ECG, injection site and laboratory tests assessments
The pharmacokinetic parameter values of zotarolimus were estimated for individual subjects using compartmental analysis. Data from the first dose on Study Day 1, the last dose on Study Day 14 and the trough concentrations on Study Days 10, 11, 12 and 13 were simultaneously modeled for each individual subject. […]

Structure (SMILES): CO[C@H]1C[C@@H]2CC[C@@H](C)[C@@](O)(O2)C(=O)C(=O)N2CCCC[C@H]2C(=O)O[C@H]([C@H](C)C[C@@H]2CC[C@H](n3cnnn3)[C@H](OC)C2)CC(=O)[C@H](C)/C=C(\C)[C@@H](O)[C@@H](OC)C(=O)[C@H](C)C[C@H](C)/C=C/C=C/C=C/1C [zotarolimus]
- Percent Release ([1]; 0.01 M phosphate buffer pH 6.0, 0.00 min): 0.00
- Percent Release ([1]; 0.01 M phosphate buffer pH 6.0, 5.00 min): 1.87
- Percent Release ([1]; 0.01 M phosphate buffer pH 6.0, 15.00 min): 2.97
- Percent Release ([1]; 0.01 M phosphate buffer pH 6.0, 30.00 min): 3.24
- Percent Release ([1]; 0.01 M phosphate buffer pH 6.0, 60.00 min): 3.29
- Percent Release ([1]; 0.01 M phosphate buffer pH 6.0, 180.00 min): 4.36
- Percent Release ([1]; 0.01 M phosphate buffer pH 6.0, 240.00 min): 4.37
- Percent Release ([1]; 0.01 M phosphate buffer pH 6.0, 300.00 min): 6.34
- Percent Release ([1]; 0.01 M phosphate buffer pH 6.0, 360.00 min): 7.88
- V1 ([2]; 200 μg QD IV infusion 14 days, compartmental, mean ± SD): 11.4 ± 1.7 L
- median Cmax ([2]; 200 μg QD): 11.4 ng/mL
- AUCτ/Dose ([2]; 200 μg QD, mean ± SD): 0.245 ± 0.031 ng·h/mL/µg
- Cmax ([2]; 200 μg QD, mean ± SD): 11.2 ± 1.1 ng/mL
- Cmax/Dose ([2]; 200 μg QD, mean ± SD): 0.056 ± 0.006 ng/mL/µg
- Gamma ([2]; 200 μg QD, mean ± SD): 0.028 ± 0.005 h − 1
- V1 ([2]; 400 μg QD IV infusion 14 days, compartmental, mean ± SD): 11.3 ± 1.0 L
- median Cmax ([2]; 400 μg QD): 22.1 ng/mL
- AUCτ/Dose ([2]; 400 μg QD, mean ± SD): 0.260 ± 0.047 ng·h/mL/µg
- Cmax ([2]; 400 μg QD, mean ± SD): 21.4 ± 2.4 ng/mL
- Cmax/Dose ([2]; 400 μg QD, mean ± SD): 0.053 ± 0.006 ng/mL/µg
- Gamma ([2]; 400 μg QD, mean ± SD): 0.022 ± 0.003 h − 1
- V1 ([2]; 800 μg QD IV infusion 14 days, compartmental, mean ± SD): 13.1 ± 3.2 L
- fraction of the dose recovered in the urine as unchanged drug ([2]; 800 μg QD dose group, 24-hour period on Day 1 and Day 14): approximately 0.1%
- median Cmax ([2]; 800 μg QD): 38.9 ng/mL
- AUCτ/Dose ([2]; 800 μg QD, mean ± SD): 0.224 ± 0.022 ng·h/mL/µg
- Cmax ([2]; 800 μg QD, mean ± SD): 38.7 ± 6.3 ng/mL
- Cmax/Dose ([2]; 800 μg QD, mean ± SD): 0.048 ± 0.008 ng/mL/µg
- Gamma ([2]; 800 μg QD, mean ± SD): 0.023 ± 0.003 h − 1
- evidence of immunosuppression, QTc prolongation or clinically significant adverse events ([2]; 200-800 μg QD for 14 days): no subject displayed any clinical or biochemical evidence of immunosuppression, QTc prolongation or clinically significant adverse events
- most common treatment-emergent adverse events ([2]; 200-800 μg QD for 14 days): pain, headache, injection site reaction, dry skin, abdominal pain, diarrhea and rash
- serious adverse events ([2]; 200-800 μg QD for 14 days): no serious adverse events
- dose proportionality and time dependence of pharmacokinetics ([2]; IV for 14 consecutive days, 200-800 μg QD): dose proportional and time invariant
- Steady state for QD dosing reached ([2]; QD IV dosing, first trough samples on Day 10): ≤ 10 days
- tolerability ([2]; multiple doses of 200, 400, and 800 μg for 14 consecutive days): generally well tolerated
- V1 ([2]; range of means over the studied regimens 200-800 μg QD): 11.3 to 13.1 L
- zotarolimus dose recovered in the urine ([2]; within a 24-hour period post-dose, on average): 0.1%
